# From US9827265B1, “Method for attenuating free radical formation resulting from a bodily insult” (MD Scientific, LLC, priority 2012, dated 2017)
# Where two headings read alike, the source gives them in different places.
# [1] = high risk subjects with injection of iodinated contrast in the cardiac arteries, total 1.96 mEq/kg, 40% prior to and 60% during and after the contrast, sodium concentration 154 mEq/L, death primarily from cardiac failure
SMILES,incidence of death [1],"incidence of death (subjects with other types of iodinated contrast injection (other non-cardiac arteries), compared between both study cohorts)"
"O=C([O-])O.[Na+] [sodium bicarbonate solution, sodium bicarbonate]",3.2%,same incidence of death in both study cohorts
"[Cl-].[Na+] [sodium chloride (saline), sodium chloride]",10.1%,
